Reference: ChEMBL document CHEMBL1151792, “Development of novel tail-modified anandamide analogs” (Bioorg Med Chem Lett, 2008)

How the values were obtained:
Cannabinoid receptor 1 = Cannabinoid receptor 1 (Rattus norvegicus, UniProt P20272); format: cell membranes, Brain, Membrane
Description: Displacement of [3H]CP-55940 from cannabinoid CB1 receptor in rat brain membrane in presence of phenylmethanesulfonyl fluoride

Cannabinoid receptor 2 = Cannabinoid receptor 2 (Mus musculus, UniProt P47936); assay: Displacement of [3H]CP-55940 from cannabinoid CB2 receptor in mouse spleen membrane; format: cell membranes
Cannabinoid receptor 2, sequence (P47936 whole entry): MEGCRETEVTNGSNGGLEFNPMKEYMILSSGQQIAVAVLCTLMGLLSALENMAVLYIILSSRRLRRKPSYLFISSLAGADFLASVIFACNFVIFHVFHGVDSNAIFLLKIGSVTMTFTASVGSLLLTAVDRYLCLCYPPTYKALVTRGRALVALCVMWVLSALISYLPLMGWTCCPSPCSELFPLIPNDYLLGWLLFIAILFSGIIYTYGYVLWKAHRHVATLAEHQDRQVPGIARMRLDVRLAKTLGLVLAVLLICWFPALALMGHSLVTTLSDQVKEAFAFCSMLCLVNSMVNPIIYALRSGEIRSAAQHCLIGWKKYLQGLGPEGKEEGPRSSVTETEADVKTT

Cannabinoid receptor 1, sequence (P20272 whole entry): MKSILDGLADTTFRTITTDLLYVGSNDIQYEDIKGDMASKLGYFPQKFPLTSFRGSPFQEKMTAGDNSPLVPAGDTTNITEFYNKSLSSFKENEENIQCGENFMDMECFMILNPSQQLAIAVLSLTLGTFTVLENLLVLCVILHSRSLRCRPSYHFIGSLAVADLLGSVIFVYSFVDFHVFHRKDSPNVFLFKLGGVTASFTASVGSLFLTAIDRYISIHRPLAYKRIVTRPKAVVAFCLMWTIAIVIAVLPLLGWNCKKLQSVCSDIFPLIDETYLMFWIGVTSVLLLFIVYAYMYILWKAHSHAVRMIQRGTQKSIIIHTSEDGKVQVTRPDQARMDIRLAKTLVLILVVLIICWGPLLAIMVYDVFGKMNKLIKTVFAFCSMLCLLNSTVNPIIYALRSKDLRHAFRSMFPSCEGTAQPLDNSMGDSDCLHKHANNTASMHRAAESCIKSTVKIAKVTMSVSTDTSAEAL

Structure (SMILES) | Ki (Cannabinoid receptor 1) [nM] | Ki (Cannabinoid receptor 2) [nM]
C[C@H](CO)NC(=O)CCC/C=C\C/C=C\C/C=C\C/C=C\CCCCc1cccc(C(F)(F)F)c1 | 284 | 2040
C[C@H](CO)NC(=O)CCC/C=C\C/C=C\C/C=C\C/C=C\CCCCc1cccc(I)c1 | 533 | 1560
C[C@H](CO)NC(=O)CCC/C=C\C/C=C\C/C=C\C/C=C\CCCCc1ccc(Br)cc1 | 8.9 | 250
C[C@H](CO)NC(=O)CCC/C=C\C/C=C\C/C=C\C/C=C\CCCCCc1ccoc1 | 170 | 869
C[C@H](CO)NC(=O)CCC/C=C\C/C=C\C/C=C\C/C=C\CCCCc1ccccc1 | 13.3 | 1120
C[C@H](CO)NC(=O)CCC/C=C\C/C=C\C/C=C\C/C=C\CCCCc1ccco1 | 325 | 750
C[C@H](CO)NC(=O)CCC/C=C\C/C=C\C/C=C\C/C=C\CCCCc1ccoc1 | 12 | 1030
C[C@H](CO)NC(=O)CCC/C=C\C/C=C\C/C=C\C/C=C\CCCCc1ccccc1Br | 170 | 
Cc1cccc(CCCC/C=C\C/C=C\C/C=C\C/C=C\CCCC(=O)N[C@H](C)CO)c1 | 344 | 840
C[C@H](CO)NC(=O)CCC/C=C\C/C=C\C/C=C\C/C=C\Cc1ccccc1 | 349 | 826
C[C@H](CO)NC(=O)CCC/C=C\C/C=C\C/C=C\C/C=C\CCCc1ccccc1 | 69.2 | 534
C[C@H](CO)NC(=O)CCC/C=C\C/C=C\C/C=C\C/C=C\CCCCc1cccc2ccccc12 | 678 | 4000
C[C@H](CO)NC(=O)CCC/C=C\C/C=C\C/C=C\C/C=C\CCc1ccccc1 | 241 | 335
C[C@H](CO)NC(=O)CCC/C=C\C/C=C\C/C=C\C/C=C\CCCCCc1ccccc1 | 76.6 | 241
C[C@H](CO)NC(=O)CCC/C=C\C/C=C\C/C=C\C/C=C\CCCCc1cccc(Cl)c1 | 89.4 | 605
C[C@H](CO)NC(=O)CCC/C=C\C/C=C\C/C=C\C/C=C\CCCCc1cccc(Br)c1 | 95.3 | 1050
C[C@H](CO)NC(=O)CCC/C=C\C/C=C\C/C=C\C/C=C\CCCCCc1ccco1 | 561 | 3260
